# Measurements published in patent publication US20250145564A1, “SULFONYLUREA COMPOUND, PREPARATION METHOD THEREFOR, AND APPLICATION THEREOF” (SHANGHAI INSTITUTE OF MATERIA MEDICA, CHINESE ACADEMY OF …, priority 2021, published 2025).
# Tested on: mice with chronic heart failure (TAC)
# Assay: TAC mouse model, comparison of I-23 and Empagliflozin
# Type: in vivo
# Conditions: mice, daily gavage eight weeks; I-23 0.44 mg/kg; Empagliflozin 10 mg/kg
# Text: 12-week-old male C57BL/6 mice, which were purchased from Gempharmatech Co., Ltd, were raised in the SPF animal house of Tongji Medical College, Huazhong University of Science and Technology. After one week of acclimatization in the animal house, the mice were subjected to thoracic aortic constriction as the TAC group. Another group of mice were subjected to thoracotomy without ligation of thoracic aorta as Sham group. Meanwhile, AUDA was used as the positive control.
# Cardiac ultrasound detection was performed on a Visual Sonics Vevo 2100 small animal ultrasound imager. The major measurement indicators include heart rate (HR), left ventricular ejection fraction (LVEF), left ventricular fractional shortening (LVFS), left ventricular internal dimension-diastole (LVIDd) and left ventricular internal dimension-systole (LVIDs), and left ventricular posterior wall thickness (LVPWd and LVPWs).
# The detection was performed on a Millar pressure-volume system from Millar Instr Ment PowerLab. After the animals were anesthetized to an appropriate extent, a midline incision was made in the neck, the right common carotid artery was separated, ligated at the distal end and clipped at the proximal end. A V-shaped incision was made on the artery with microscissors, and a microcatheter was inserted to the left ventricle. Signals were recorded through a conduction system to obtain hemodynamic data such as heart rate (HR), left ventricular end diastolic pressure (PED), left ventricular end systolic pressure (PES), maximum rate of decrease in left ventricular pressure (−dp/dtmin), and maximum rate of increase in left ventricular pressure (+dP/dtmax).
# The myocardial tissue was placed in an embedding frame, soaked and fixed in neutral formaldehyde solution, dehydrated, and embedded in paraffin. The paraffin block was then sliced into sections with a thickness of 4 μm on a microtome. The general appearance of the myocardium was observed through HE staining, and the myocardial fibrosis was observed through Sirius red staining.
# Total RNA was extracted using Invitrogen's Trizol reagent, then cDNA was obtained using TAKARA's reverse transcription kit, and finally the mRNA content of related genes was amplified with specific primers.
# Cardiac ultrasound examination was performed two weeks after TAC surgery. 24 TAC mice with no significant difference in cardiac function were selected and randomly divided into a model group (TAC) and a treatment group (TAC+compound). The model group received no other treatment, while the treatment group received daily gavage (0.44 mg/kg for I-23 or 10 mg/kg for Empagliflozin). Eight weeks later, i.e., at the chronic heart failure phase, the animals were sacrificed, and tissue specimens were collected to perform the above detections.
# This experiment was to compare the ameliorative effects of I-23 and Empagliflozin on chronic heart failure.
Compound,"cardiac hypertrophy (heart photographs, heart weight/tibia length HW/TL)",expression of BNP in mouse cardiomyocytes after TAC,"impaired cardiac function (EF value, FS value, LVIDs, dp/dt)",positive area of Sirius red staining (myocardial fibrosis)
"OC[C@H]1O[C@@H](c2ccc(Cl)c(Cc3ccc(O[C@H]4CCOC4)cc3)c2)[C@H](O)[C@@H](O)[C@@H]1O [Empagliflozin, reference compound]",reversal effect,can inhibit this effect,can inhibit this effect,can inhibit this effect

# Target: T1, sEH (human recombinant) (Homo sapiens, UniProt P34913)
# T1 sequence (P34913 1-555): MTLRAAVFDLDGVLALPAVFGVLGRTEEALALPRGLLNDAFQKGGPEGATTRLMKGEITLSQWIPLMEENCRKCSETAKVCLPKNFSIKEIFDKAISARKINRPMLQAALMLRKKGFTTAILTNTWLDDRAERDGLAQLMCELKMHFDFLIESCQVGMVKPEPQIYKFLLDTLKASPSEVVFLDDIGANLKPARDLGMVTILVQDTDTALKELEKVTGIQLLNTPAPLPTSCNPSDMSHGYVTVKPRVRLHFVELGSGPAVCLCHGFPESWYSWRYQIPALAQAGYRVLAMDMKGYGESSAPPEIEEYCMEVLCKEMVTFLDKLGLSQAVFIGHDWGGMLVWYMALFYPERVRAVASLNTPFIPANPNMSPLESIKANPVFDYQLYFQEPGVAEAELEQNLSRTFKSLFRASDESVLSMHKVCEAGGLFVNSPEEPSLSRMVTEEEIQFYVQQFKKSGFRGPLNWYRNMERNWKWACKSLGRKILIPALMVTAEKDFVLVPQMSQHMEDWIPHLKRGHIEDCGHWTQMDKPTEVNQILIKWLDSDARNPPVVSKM
# Assay: sEH inhibition assay (fluorescence);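 note: enzyme preincubated with compound 30 min at 25 °C, then substrate added and fluorescence read after 15 min at 25 °C, 320 nm and 460 nm, versus DMSO negative control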
# Conditions: not given
row,Compound,IC50 [µM]
1,Cc1ccc(S(=O)(=O)N(C(=O)NN2CC3CCCC3C2)C(C)C)cc1 (stereo not drawn) [Compound I-7],1 to 10
2,CCC(=O)OC[C@H]1CC[C@H](NC(=O)NS(=O)(=O)c2ccc(CCNC(=O)N3CC(C)=C(CC)C3=O)cc2)CC1 [Compound I-39],1 to 10
3,CCC1=C(C)CN(C(=O)NCCc2ccc(S(=O)(=O)NC(=O)N[C@H]3CC[C@H](COC(=O)Nc4ccc(OC(F)(F)F)cc4)CC3)cc2)C1=O [Compound I-13],1 to 10
4,Cc1ccc(S(=O)(=O)N(C)C(=O)NN2CCCCCC2)cc1 [Compound I-33],1 to 10
5,CCC1=C(C)CN(C(=O)NCCc2ccc(S(=O)(=O)NC(=O)N[C@H]3CC[C@H](COC(=O)C(C)(C)C)CC3)cc2)C1=O [Compound I-43],1 to 10
6,CCC1=C(C)CN(C(=O)NCCc2ccc(S(=O)(=O)NC(=O)N[C@H]3CC[C@H](COC(=O)C(C)C)CC3)cc2)C1=O [Compound I-41],1 to 10
7,CCC1=C(C)CN(C(=O)NCCc2ccc(S(=O)(=O)NC(=O)N[C@H]3CC[C@H](COC(=O)CN(C)C)CC3)cc2)C1=O [Compound I-14],10 to 100
8,CCC1=C(C)CN(C(=O)NCCc2ccc(S(=O)(=O)NC(=O)N[C@H]3CC[C@H](OC(N)=O)CC3)cc2)C1=O [Compound I-31],1 to 10
9,CCC1=C(C)CN(C(=O)NCCc2ccc(S(=O)(=O)N(C)C(=O)N[C@H]3CC[C@H](COCP(=O)(OCOC(=O)OC(C)C)OCOC(=O)OC(C)C)CC3)cc2)C1=O [Compound I-21],10 to 100
10,CCC1=C(C)CN(C(=O)NCCc2ccc(S(=O)(=O)NC(=O)NC3CCC(C(=O)OC)CC3)cc2)C1=O (stereo not drawn) [Compound I-26],1 to 10
11,COc1ccc(Cl)cc1C(=O)NCCc1ccc(S(=O)(=O)N(C)C(=O)NC2CCCCC2)cc1 [Compound I-3],< 0.2
12,CCC1=C(C)CN(C(=O)NCCc2ccc(S(=O)(=O)N(C(=O)N[C@H]3CC[C@H](C)CC3)C(C)C)cc2)C1=O [Compound I-38],1 to 10
13,CCC1=C(C)CN(C(=O)NCCc2ccc(S(=O)(=O)N(C)C(=O)N[C@H]3CC[C@H](COC(C)=O)CC3)cc2)C1=O [Compound I-24],1 to 10
14,CCC1=C(C)CN(C(=O)NCCc2ccc(S(=O)(=O)NC(=O)N[C@H]3CC[C@H](CO[P@](=O)(N[C@@H](C)C(=O)OC(C)C)Oc4ccccc4)CC3)cc2)C1=O [Compound I-19],10 to 100
15,CCNC(=O)OC[C@H]1CC[C@H](NC(=O)NS(=O)(=O)c2ccc(CCNC(=O)N3CC(C)=C(CC)C3=O)cc2)CC1 [Compound I-10],0.2 to 1
16,Cc1ccc(S(=O)(=O)N(C)C(=O)NC2[C@@H](O)C3(C)CC[C@@H]2C3(C)C)cc1 (stereo partly drawn) [Compound I-36],1 to 10
17,CC(=O)c1ccc(S(=O)(=O)N(C)C(=O)NC2CCCCC2)cc1 [Compound I-5],0.2 to 1
18,CCC1=C(C)CN(C(=O)NCCc2ccc(S(=O)(=O)NC(=O)N[C@H]3CC[C@H](COC(=O)CN4CCCCC4)CC3)cc2)C1=O [Compound I-16],0.2 to 1
19,CCC1=C(C)CN(C(=O)NCCc2ccc(S(=O)(=O)N(C)C(=O)N[C@H]3CC[C@H](COC(=O)C(C)C)CC3)cc2)C1=O [Compound I-42],1 to 10

row,Compound,IC50 [µM]
1,CCC1=C(C)CN(C(=O)NCCc2ccc(S(=O)(=O)NC(=O)N[C@H]3CC[C@H](COC(=O)NC4CC4)CC3)cc2)C1=O [Compound I-12],0.2 to 1
2,CCC1=C(C)CN(C(=O)NCCc2ccc(S(=O)(=O)NC(=O)N[C@H]3CC[C@H](C(=O)OC(C)OC(=O)OC4CCCCC4)CC3)cc2)C1=O (stereo partly drawn) [Compound I-17],10 to 100
3,CCNC(=O)OC[C@H]1CC[C@H](NC(=O)N(C)S(=O)(=O)c2ccc(CCNC(=O)N3CC(C)=C(CC)C3=O)cc2)CC1 [Compound I-11],< 0.2
4,CCC(=O)OC[C@H]1CC[C@H](NC(=O)N(C)S(=O)(=O)c2ccc(CCNC(=O)N3CC(C)=C(CC)C3=O)cc2)CC1 [Compound I-40],1 to 10
5,CCC1=C(C)CN(C(=O)NCCc2ccc(S(=O)(=O)N(C)C(=O)NC3CCC(C(=O)O)CC3)cc2)C1=O (stereo not drawn) [Compound I-27],10 to 100
6,COc1ccc2c(c1)C(=O)N(CCc1ccc(S(=O)(=O)N(C)C(=O)NC3CCCCC3)cc1)C(=O)C2(C)C [Compound I-2],< 0.2
7,CCC1=C(C)CN(C(=O)NCCc2ccc(S(=O)(=O)N(C)C(=O)N[C@H]3CC[C@H](COC(=O)C(C)(C)C)CC3)cc2)C1=O [Compound I-44],1 to 10
8,CCC1=C(C)CN(C(=O)NCCc2ccc(S(=O)(=O)N(C)C(=O)N[C@H]3CC[C@H](CO[P@](=O)(N[C@@H](C)C(=O)OC(C)C)Oc4ccccc4)CC3)cc2)C1=O [Compound I-22],10 to 100
9,CCC1=C(C)CN(C(=O)NCCc2ccc(S(=O)(=O)N(C)C(=O)N[C@H]3CC[C@H](CO)CC3)cc2)C1=O [Compound I-9],0.2 to 1
10,Cc1cc(C(=O)NCCc2ccc(S(=O)(=O)N(C)C(=O)NN3CCCCCC3)cc2)no1 [Compound I-35],1 to 10
11,CCC1=C(C)CN(C(=O)NCCc2ccc(S(=O)(=O)N(CC)C(=O)N[C@H]3CC[C@H](C)CC3)cc2)C1=O [Compound I-37],1 to 10
12,CCCC1=C(C)CN(C(=O)NCCc2ccc(S(=O)(=O)NC(=O)NC3CCC(C(=O)OC)CC3)cc2)C1=O (stereo not drawn) [Compound I-30],10 to 100
13,CCC1=C(C)CN(C(=O)NCCc2ccc(S(=O)(=O)N(C)C(=O)NC3CCC(CC)CC3)cc2)C1=O (stereo not drawn) [Compound I-34],1 to 10
14,Cc1cnc(C(=O)NCCc2ccc(S(=O)(=O)N(C)C(=O)NC3CCCCC3)cc2)cn1 [Compound I-32],1 to 10
15,C=CCN(C(=O)N[C@H]1CC[C@H](C)CC1)S(=O)(=O)c1ccc(CCNC(=O)N2CC(C)=C(CC)C2=O)cc1 [Compound I-6],1 to 10
16,CCC1=C(C)CN(C(=O)NCCc2ccc(S(=O)(=O)NC(=O)N[C@H]3CC[C@H](COC)CC3)cc2)C1=O [Compound I-25],0.2 to 1
17,CCC1=C(C)CN(C(=O)NCCc2ccc(S(=O)(=O)NC(=O)NC3CCC(C(=O)NC)CC3)cc2)C1=O (stereo not drawn) [Compound I-29],1 to 10
18,CCC1=C(C)CN(C(=O)NCCc2ccc(S(=O)(=O)NC(=O)N[C@H]3CC[C@H](COP(=O)(OCOC(=O)OC(C)C)OCOC(=O)OC(C)C)CC3)cc2)C1=O [Compound I-18],10 to 100
19,CCC1=C(C)CN(C(=O)NCCc2ccc(S(=O)(=O)N(C(=O)N[C@H]3CC[C@H](C)CC3)C3CC3)cc2)C1=O [Compound I-8],1 to 10
